Results published in paper PMC6044923 (ACS Omega, 2017).

Molecular target: amyloid-β (Aβ(1–42)) (Homo sapiens, UniProt P05067)
Experiment: SPR aggregation assay
Format: biochemical

Chain of amyloid-β (Aβ(1–42)) (P05067 672-713): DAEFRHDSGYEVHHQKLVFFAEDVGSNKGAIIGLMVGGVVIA

Structure (SMILES): C[n+]1ccc(-c2c3nc(c(-c4cc[n+](C)cc4)c4ccc([nH]4)c(-c4cc[n+](C)cc4)c4nc(c(-c5cc[n+](C)cc5)c5ccc2[nH]5)C=C4)C=C3)cc1 [TMPyP, 5,10,15,20-tetrakis(N-methyl-4-pyridyl)porphyrin]
- IC50: 430 nM
